# Columns and labels:
# islets [1] = experiment: FDA/PI staining islet viability, dose effect study; settings: 48 hours culture
# Method: Viability was assessed using fluorescein diacetate (FDA) and propidium iodide (PI). Islets used for the studies were 80 to 90% viable, with a purity of 60 to 85%. Human islets used were handpicked to greater than 95% purity. Islets were cultured with CMRL-based human islet culture media containing 0.1% BSA with Kanamycin at 37° C.
# The viability and apoptosis test of islet with four different concentrations of Withaferin A (0.5 μg/mL, 1 μg/mL, 2 μg/mL and 4 μg/mL) was examined. FDA/PI staining was used to determine the islet viability.
# human β cells = experiment: TUNEL assay on sections, cytokine mediated beta cell apoptosis; type: cell-based; settings: cytokine + 1.0 μg/mL, twenty four hours, vs control
# Method: Islets were protected from cytokine damage by Withaferin A at both time points. Islet potency was assessed by stimulation index after 24 hours. […] Graphical representations (10E-10G) are expressed as means±STD. Significant differences between mean values groups as determined by Turkey-Kramer post-hoc tests are indicated by an asterisk (*p<0.05) above bars; and
# TUNEL Assay: The TUNEL assay was performed with ApopTag® fluorescein in situ apoptosis detection kit. After deparaffinization of samples, antigen retrieval was performed with proteinase K and insulin staining was performed as described previously. Next, digoxigenin labeled nucleotides were added to DNA fragments by the enzyme terminal deoxynucelotidyl transferase (TdT) by incubation at 37° C. for 1 hour. Fluorescein labeled anti-digoxigenin antibodies are bound to the digoxigenin by incubation at room temperature for 30 minutes. Lastly DAPI is stained as described above, and slides are mounted with VecataShield and visualized with fluorescent microscopy. Apoptotic cells are counted as those that appear fluorescently green in the nuclei of insulin positive cells. All nuclei of insulin positive cells were counted and percentage of TUNEL^+ cells was calculated as number of TUNEL positive nuclei divided by the total number of insulin positive beta cells. At least 300 nuclei were counted for each condition. […]
# mouse islets [2] = experiment: Viability determination by Hoechst 342/PI, mouse islets; type: cell-based; settings: for viability of mouse islets exposed to cytokines: 24 hours (cytokines 78.1±11.6%, control 93.3±2.9%)
# Method: (§1) FIGS. 5A-5D show the optimal Withaferin A dosing is found without toxicity to islets: Human (5A and 5B) and mouse (5C and 5D) islets were cultured with Withaferin A. Samples were taken at 24 and 48 hours and stained with Hoechst 342 (all nuclei) and propidium iodide (necrotic nuclei). The percent viability was determined as the PI^+ area subtracted from the total area (Hoe342 stained). The optimal Withaferin A dose was determined to be 1.0 μg/mL Withaferin A for human islets (5A) and 0.5 μg/mL for mouse islets (5C). Asterisks above bars indicate statistically significant differences in mean values (*p<0.05 for 48 h and **p<0.001 for 24 and 48 hours) between controls and islets exposed to Withaferin A based on two-tailed Student's t test; N=10;
# Mouse Isolation: Islets were isolated from male inbred B6 […] mice (C57BL/6N Inbred Mice, Harlan Labs). Collagenase type V (Sigma, C9263) (2 mg/mL) was injected through the common bile duct into the pancreas. Mouse pancreata were digested by incubation at 37° C. for 28 minutes. After washing, the islets were purified with a discontinuous Ficoll based gradient (1.085 g/mL, 1.077 g/mL, and Cap of DMEM) and centrifugation at 1000 rpm for 10 minutes. Purified islets were further purified in a 65 mm dish in DMEM by removing acinar cells to a purity of greater than 95%. Islets were cultured in DMEM supplemented with Kanamycin and 0.1% BSA, mouse islet culture media.
# (§2) Viability Determination by Hoechst 342/PI: For immediate in vitro determination of necrosis, islets were incubated with Hoechst 342 (10 μg/mL) and propidium iodide (20 μg/mL) for 10 minutes at 37° C. before imaging via fluorescent microscopy. Fluorescent microsgraphs were merged in Image J (NIH Bethesda, Md.) and the propidium iodide positive area was divided by the Hoechst 342 positive area to provide a calculation of islet viability.
# [3] = test system: G-CSF, IL-2, IL-6, IL-8, IP-10, MCP-1, IL-1α, TNF-α, MIP-1α, MIP-1β secreted by human islets; experiment: Secreted inflammatory cytokines and chemokines (Luminex); type: cell-based; settings: 96 hours
# Method: Supernatant was collected and analyzed in duplicate with Millipore's human cytokine detection kit in the Luminex 200®. Results were standardized to the number of islets. Graphical representations are expressed as means±STD. Significant differences between mean values groups as determined by Turkey-Kramer post-hoc tests are indicated by an asterisk (*p<0.05) above bars;
# Measurement of Secreted Inflammatory Cytokines and Chemokines: Fifty human islets were cultured in human islet culture media for 96 hours with the cytokine and Withaferin A treatment. Secretion of proinflammatory cytokines was determined by measuring cell culture supernatant in a Luminex 200 with a human inflammatory cytokine MagPlex kit (Millipore, Billerica, Mass.). The bead assay was performed according to the manufacturer's instructions with samples in duplicate.
# In this study cell culture supernatants from human islets exposed to cytokines and Withaferin A was evaluated by a multiplex bead assay using Luminex® technology. The cell culture supernatant from which the samples were taken for Luminex analysis contained fifty, pure, hand-picked human islets, which had been cultured at 22° C. for over a week to decrease resident macrophage numbers that might interfere (N=10).
# mouse islets [4] = experiment: Glucose stimulated static incubation assay, mouse islets
# Method: (§3) Cytokine & Withaferin A Treatment: After isolation and overnight culture, islets were subjected to an in-vitro model of inflammatory conditions with a cytokine cocktail of the species specific recombinant proteins (1,000 U/mL TNF-α, 1,000 U/mL IFN-γ, and 50 U/mL IL-1β dissolved in human or mouse islet culture media). Islets were treated by Withaferin A co-culture at concentrations ranging from 0.25 to 2.0 μg/mL. Control islets were cultured in the appropriate culture media lacking both the cytokine cocktail and Withaferin A. All islets were cultured in a humidified incubation chamber at 37° C. with 5% CO2 for the indicated time.
# (§4) Glucose Stimulated Static Incubation Assay: Islets in each experimental condition were incubated with low (2.8 mM) and then high (20.0 mM) concentrations of glucose solution in Functionality/Viability Medium CMRL1066 (Mediatech, Inc. Manassas, Va.) for 1 hour each at 37° C. Insulin concentrations were measured by an insulin ELISA kit (ALPCO Diagnostics, Salem, N.H.). The insulin secretion levels were normalized by total DNA of the stimulated islets. Studies were performed in triplicate with 10 islets in each group.
# human islets [5] = experiment: Glucose stimulated static incubation assay, human islets; settings: for stimulation index, human islets: 24 hours, no cytokines (control 3.11±1.53)
# Method: as §3, §4
# IP-10 = experiment: Flow cytometry, intracellular IP-10 in islets; type: cell-based, human; settings: islets treated with cytokine mix + Withaferin A (untreated 4214.15, cytokine mix 18024.08)
# Text: (§5) The IP-10 expression level was examined by flow cytometry. After treatment, islets were fixed, permeablized and aliquoted to three tubes staining with anti-IP10.
# [6] = In vivo intraportal syngeneic islet transplant in STZ diabetic mice; design: species or system C57BL/6 mice
# Method: Intraperitoneal glucose tolerance test was performed on day 30 post transplant to assess glycemic control of Withaferin A-treated and vehicle-treated (11E) mice; also naïve and STZ-induced diabetic mice were challenged with glucose for comparison. After 12-14 hours of fasting, mice were injected with a 5% glucose solution (1 mg/kg body weight) and blood glucose levels were monitored at 0, 30, and 120 minutes afterwards. […] After thirty days, hepatectomy of recipient mice was performed and the liver was fixed in formalin, embedded in paraffin and stained for insulin (11F) and H&E (11G).
# In-vivo Intraportal Transplant: Diabetes was induced in by injecting streptozomycin (STZ 180 mg/kg, 9 mg/mL dissolved in DPBS) into the tail vein. Accu-Chek Aviva® (Roche Diagnostics, Indianapolis, Ind.) was used to monitor blood glucose from the tail vein, and mice were considered diabetic, when their blood glucose was measured as greater than 350 dg/mL for two days in a row. Mice were anesthetized with avertin (20 mg/mL, 0.5 mL/mouse), then two hundred islets were injected into the portal vein by puncturing the portal vein through the pancreas with a 27 gauge, hypodermic needle attached to a glass syringe. The peritoneum was first closed with 5-0 black silk sutures, and before sealing this closure, Withaferin A (25 ug, 0.5 mL/mouse) or vehicle (DPBS) was injected into the peritoneal space. […]
# To determine only the anti-inflammatory effects of Withaferin A on islet transplantation, a syngeneic model was used. […] It was determined that 400 islets are required for successful transplantation into the portal vein of the liver for mice.
# Daily intraperitoneal injections of Withaferin A (25 μg, 0.5 mL/mouse) for seven days post-transplant beginning immediately after islet infusion were performed on six mice. […] After 12 to 14 hours of fasting, mice were injected with a 5% glucose solution (2 mg/kg body weight) and blood sugar levels were measured at zero, thirty, and one hundred twenty minutes after the injection.
# islets [7] = experiment: TUNEL assay, FITC positive population, dose effect study
# Method: The present inventors conducted a dose effect study of Withaferin A on islets. […] The viability and apoptosis test of islet with four different concentrations of Withaferin A (0.5 μg/mL, 1 μg/mL, 2 μg/mL and 4 μg/mL) was examined. FDA/PI staining was used to determine the islet viability.
# [8] = test system: inflammatory gene expression in human islets; experiment: RT-PCR human inflammation gene array, cytokine-treated islets; type: cell-based
# Method: as §3
# human islets [9] = experiment: Viability determination by Hoechst 342/PI, human islets; type: cell-based; settings: for viability of human islets exposed to cytokines: 24 hours (cytokines 85.8±3.9%, control 93.5±3.2%)
# Method: as §1, §2
# [10] = test system: IκB in human islets and β-cell lines; experiment: Western blotting of IκB after cytokine cocktail; type: cell-based; settings: cytokines 20 min
# Method: Graphical representations (6B) are expressed as means±STD. Asterisks above bars indicate statistically significant differences in mean values (*p<0.05, **p<0.01, ***p<0.001) between treatments and controls (black bars) for each cell type based on two-tailed Student's t test;
# Western Blotting: Cells were treated with cytokines for 20 min, then harvested in lysis buffer containing 50 mM HEPES, pH 7.5, 150 mM NaCl, 1% Triton X-100, 0.2 mg/mL phenylmethylsulfonyl fluoride (PMSF), 0.1 M NaF, 2 mM Na3VO4, 10 μg/mL aprotinin, 5 μg/mL pepstatin A, and 5 μg/mL leupeptin. Proteins were subjected to SDS/polyacrylamide gel electrophoresis and electrotransferred to nitrocellulose membranes. Membranes were blocked with 5% milk in Tris-buffered saline containing 0.1% Tween-20 (TBST) pH 7.4 for 2 hours, incubated with primary antibody for 1 hour at 4° C., and washed three times with TBST. Primary antibodies were IkB-α (C-21) (Santa Cruz) and ERK1/2 as described.^21 Membranes were then incubated with secondary antibodies conjugated to DyLight 680 and 800 fluorescent dyes (Cell Signaling) to detect proteins using an ODYSSEY Infrared Imaging System (LI-COR).
# [11] = IPGTT on day 30 post transplant; type: in vivo, C57BL/6 mice
# Method: Intraperitoneal glucose tolerance test was performed on day 30 post transplant to assess glycemic control of Withaferin A-treated and vehicle-treated (11E) mice; also naïve and STZ-induced diabetic mice were challenged with glucose for comparison. After 12-14 hours of fasting, mice were injected with a 5% glucose solution (1 mg/kg body weight) and blood glucose levels were monitored at 0, 30, and 120 minutes afterwards.
# IPGTT: Naïve, transplanted, and STZ induced diabetic mice were used to perform an intraperitoneal glucose tolerance test. The mouse's food was removed for 12-14 hours, then an injection of glucose (1 mg/kg body weight, 5% glucose solution in DPBS) was administered intraperitoneally. Blood glucose was monitored with Accu-Chek at 0, 30, and 120 minutes after the injection.
# To evaluate the islet graft function, IPGTT was performed on cured mice and vehicle treated mice on day 30. To control for the pattern in islet function, naïve and STZ-induced diabetic mice were tested as well. After 12 to 14 hours of fasting, mice were injected with a 5% glucose solution (2 mg/kg body weight) and blood sugar levels were measured at zero, thirty, and one hundred twenty minutes after the injection.
# [12] = test system: RANTES, IP10, MIG, IL-1β, iNOS expression in human islets; experiment: RT-PCR single gene primer assays, dose and time course in human islets; type: cell-based
# Method: as §3, with “Islets were treated by Withaferin A co-culture at concentrations ranging from 0.25 to 2.0 μg/mL.” left out
# MCP-1 and IP-10 = experiment: Immunohistochemical staining of MCP-1 and IP-10 (HRP/DAB); type: cell-based, human; settings: Withaferin A and cytokine treatment vs cytokine treatment
# Method: Immunohistochemical Staining: After culture, islets were embedded in OCT compound, flash frozen in liquid nitrogen and stored at −80° C. until sectioning. Nine μm sections of embedded islets were taken and stained for IP-10 (1:100), MCP-1 (1:20), or insulin (1:75) using standard immunohistochemical techniques. Staining was visualized using an HRP-conjugated secondary antibody conjugated with diaminobenzidine (DAB). Samples were then counterstained with hematoxylin, dehydrated and mounted. Images were acquired.
# as §5
# [13] = test system: NF-κB p65 in human β cells; experiment: p65 translocation assay; type: cell-based; settings: 24 hours (control 21.6±5.3%, cytokines 41.3±13.5%)
# Method: Graphical representations (7B) are expressed as means±STD. Asterisks above bars indicate significant differences in mean values (*p<0.05) as determined by Turkey-Kramer post-hoc tests;
# p65 Translocation Assay: NF-κB, p65, translocation was determined by overlap of Alexa-488 labeled NF-κB and DAPI stained nuclei, pseudocolored red by Image J for visualization. […] Nuclei positive for activated NF-κB translocation was counted in insulin positive cells and divided by the total number of beta-cells.
# To determine whether NF-κB has been activated and moved to the nucleus, immunohistochemistry was performed to locate the p65 portion of NF-κB as described elsewhere.^12 All nuclei in insulin positive human β cells were counted and when NF-κB was stained in the nucleus it was classified NF-κB^+ and nuclei without NF-κB were classified NF-κB^− (FIG. 7A). Percent NF-κB activation was measured at 24 hours after culture with the cytokine cocktail and Withaferin A (FIG. 7B).
# [14] = test system: MCP-1 and IP-10 in human islets; experiment: Fluorescent immunohistochemistry, mean fluorescent intensity of MCP-1 and IP-10; type: cell-based; settings: cytokine cocktail + 0.5 μg/mL Withaferin A, 24 hours
# Method: Islet sections were captured under similar conditions and mean fluorescent intensity values were measured. […] Significant differences between mean values groups as determined by Turkey-Kramer post-hoc tests are indicated by an asterisk (*p<0.05) above bars;
# Immunohistochemistry: Engrafted livers and cytokine treated islets were preserved in 10% formalin, embedded in paraffin and sectioned at 5 μm. Tissue sections were deparaffinized in xylene (twice for 5 minutes) and series of ethanol gradients (100%, 95%, 90%, 80%, 70%, and 50% ethanol diluted with water for 2 minutes each). Next, sections were heated at 98° C. in 1× Antigen Retrieval Reagent-Universal (R&D Systems) for 20 minutes. Then tissue samples were blocked for non-specific bonding by AquaBlock (EastCoast Bio) for 1 hour at room temperature. Next the primary antibody, diluted in a background reducing antibody diluent, was applied overnight at 4° C. Next, the appropriate fluorescently conjugated secondary antibody (diluted 1000×) was applied for 1 hour at room temperature protected from light. […] Micrographs were imported to Image J, converted to 8-bit grayscale photos, then the mean fluorescence intensity was measured by limiting the region of interest to a single islet via the thresholding function of the program. Mean fluorescent intensity is calculated at the integrated density divided by the area in the region of interest.
# [15] = test system: inflammatory cytokines and chemokines (iNOS, IL-1β, RANTES, MIG, IP-10) in human islets; settings: human islets exposed to inflammatory cytokines, qPCR; cited from earlier work
# [16] = test system: MIN6, a mouse beta cell line; experiment: RT-PCR gene expression in MIN6 cells; type: cell-based
# Method: RT-PCR Inflammation Array and Primer Assays: After proper time of treatment, islets were harvested and lysed in lysis buffer (Stratagene, La Jolla Calif.). RNA was purified by Absolutely RNA Miniprep kit (Stratagene) and then reverse transcribed into cDNA by RT2 Firststrand kit (SABiosciences, Frederick Md.). […] The RT-PCR reaction was run in Stratagene MX3000 with following program: 95° C., 10 minutes; 40 cycles of (95° C., 15 second; and 60° C., 60 second). Cycle threshold data was uploaded to a Web-Based PCR Array Data Analysis on SABiociences website and fold change compared to control was analyzed.
# Procedure for single gene primer assays was the same except primers of particular genes other than the whole array plate were used.
smiles,measurement,setting,value
CC1=C(CO)C(=O)O[C@@H]([C@@H](C)[C@H]2CC[C@H]3[C@@H]4C[C@H]5O[C@]56[C@@H](O)C=CC(=O)[C@]6(C)[C@H]4CC[C@]23C)C1 [Withaferin A],islet viability (FDA/PI),islets [1]; 0.5 μg/mL,not decreased
same,islet viability (FDA/PI),islets [1]; 1 μg/mL,not decreased
same,islet viability (FDA/PI),islets [1]; 2 μg/mL,slight decrease
same,islet viability (FDA/PI),islets [1]; 4 μg/mL,significant loss
same,cytokine induced β cell apoptosis (TUNEL positive staining),human β cells,totally cancel any effect of cytokines on β cell apoptosis
same,viability of mouse islets,"mouse islets [2]; 0.25 μg/mL, 48 hours, no cytokines (control 93.8±8.0%)",90.1±6.6%
same,viability of mouse islets,"mouse islets [2]; 0.5 μg/mL, 48 hours, no cytokines (control 93.8±8.0%)",94.6±4.4%
same,viability of mouse islets,"mouse islets [2]; 1.0 μg/mL, no cytokines, time not printed (control 97.3±2.2%)",87.8±11.1%
same,viability of mouse islets exposed to cytokines,mouse islets [2]; cytokine cocktail + 0.25 μg/mL,89.7±5.9%
same,viability of mouse islets exposed to cytokines,mouse islets [2]; cytokine cocktail + 0.5 μg/mL,89.9±3.6%
same,optimal Withaferin A dose without toxicity to islets,"mouse islets [2]; mouse islets, 24 and 48 hours",0.5 µg/mL
same,secreted inflammatory molecules,"[3]; 1.0 μg/mL, cytokines, p<0.05",significant decrease
same,secreted levels of inflammatory cytokines and chemokines,"[3]; human islets, cytokines + Withaferin A",decreased secreted levels of each molecule
same,"stimulation index, mouse islets","mouse islets [4]; 0.5 μg/mL, 24 hours, no cytokines (control 11.13±9.28)",7.05±2.20
same,"stimulation index, mouse islets exposed to cytokines","mouse islets [4]; cytokines with or without Withaferin A, twenty four hours",did not show any significant differences
same,"stimulation index, human islets",human islets [5]; 0.5 μg/mL,3.52±1.97
same,Stimulation Index vs control group,"human islets [5]; 1 μg/mL Withaferin A, no cytokines (FIG. 4D)",no significant difference
same,"stimulation index, human islets",human islets [5]; 1.0 μg/mL,4.21±0.41
same,"stimulation index, human islets exposed to cytokines","human islets [5]; cytokines + 1.0 μg/mL, twenty four hours (cytokines 1.59±0.34, control 3.10±1.53)",2.20±0.61
same,IP-10 mean channel fluorescence,IP-10,7318.94 (+/−78.21)
same,success rate (recipients achieving normoglycemia),"[6]; 200 islet isograft, 25 μg i.p. daily for 7 days (vehicle 0%)",83%
same,mice with amelioration of diabetes / mice treated,"[6]; 200 islet isograft, 25 μg i.p. daily for 7 days (vehicle 0/5)",5/6
same,ideal dose in the in vivo mouse model,[6]; doses from 2.5 to 50 μg/mouse tested,25 µg
same,FITC positive population (apoptosis cells),islets [7]; 2 μg/mL,small increase
same,FITC positive population (apoptosis cells),islets [7]; 4 μg/mL,dramatic increase
same,percentage of FITC positive population (apoptosis cells),islets [7]; low Withaferin A dose samples (0.5 and 1 μg/mL),close to zero
same,"inflammatory gene expression, Withaferin A treated group vs control","[8]; Withaferin A alone, no cytokines",no significant difference
same,"inflammatory gene expression, cytokine and Withaferin A group vs cytokine alone group","[8]; human islets, FIG. 1B",significantly down regulated
same,inhibition of inflammatory gene expression (FIG. 1C),"[8]; human islets, cytokine cocktail + Withaferin A vs cytokine alone, all three donors",60%-100
same,viability of human islets,"human islets [9]; 0.5 μg/mL, 48 hours, no cytokines (control 91.8±7.4%)",89.0±4.6%
same,viability of human islets,"human islets [9]; 1.0 μg/mL, 48 hours, no cytokines (control 91.8±7.4%)",91.9±3.5%
same,viability of human islets,"human islets [9]; 2.0 μg/mL, 24 hours, no cytokines (control 94.9±4.5%)",70.5±8.8%
same,viability of human islets exposed to cytokines,human islets [9]; cytokine cocktail + 0.5 μg/mL,92.6±5.1%
same,viability of human islets exposed to cytokines,human islets [9]; cytokine cocktail + 1.0 μg/mL,94.6±2.9%
same,optimal Withaferin A dose without toxicity to islets,"human islets [9]; human islets, 24 and 48 hours",1.0 µg/mL
same,IκB protein relative to ERK1/2 after cytokine cocktail,[10],prevented the reduction of IκB
same,"blood glucose, IPGTT","[11]; 0 minutes, day 30 (vehicle 485±95.4)",150.3 ± 89.2 mg/dL
same,"blood glucose, IPGTT","[11]; 30 minutes, day 30 (vehicle 523.8±95.3)",267.8 ± 84.8 mg/dL
same,"expression level of IL-1β, RANTES, MIG and IP-10 vs cytokine alone","[12]; 1 μg Withaferin A and cytokines, 12, 24, 36 and 48 hour",significantly inhibited
same,"expression of RANTES, IP10, MIG, IL-1β and iNOS","[12]; 0.5, 1, 2 and 4 μg per mL with cytokines",decreased with the increase in Withaferin A concentration
same,intensity of MCP-1 staining and IP-10 staining,MCP-1 and IP-10,decreased the intensity
same,percent NF-κB+ insulin positive cells,[13]; cytokine cocktail + 0.5 μg/mL,19.5±8.1%
same,percent NF-κB+ cells,[13]; cytokine cocktail + 1.0 μg/mL,10.0±4.1%
same,IP-10 and MCP-1 levels within beta cells (mean fluorescent intensity),[14],near control levels
same,decrease of mRNA levels of several chemokines,[15],ten-fold or more
same,"IP10, RANTES and MCP-1 expression upregulated by cytokine treatment",[16],could be inhibited

# — patent US8637494B2, “Method of achieving normoglycemia in diabetics by administration of Withaferin A” (priority 2010, dated 2014)
